According to patent US10716778B2, “Use of compounds that are able to increase the serum IGF-1 level for the preparation of a therapeutical composition for treatment of various disease states associated with a reduced IGF-1 serum level in humans and animals” (VEIJLEN N.V., priority 2003, dated 2020):
Where “and” joins values, the source holds several entries; their conditions need not be identical. Equal values may be shown once.

Columns and labels:
IGF-1 [1] = assay: IgF-1 level in type 2 diabetic patients during medication with IAA (Example 4); assay type: in vivo, human
Excerpt: Five male type 2 diabetic patients took part in the study. They were all very difficult to regulate. When the study started, the average HbA1c was to be approximately 9.0%. The patients had no other clinical problems. In addition, the IgF-BP3/IgF-1 ratio had to be over 10. The age of the subjects were between 45 years and 75 years with an average of 58. The period of the investigation was 6 months. […] The following parameters were checked: IGF-1 and IGF-PB-3. Also, at the start, safety parameters (liver tests, hematology) were determined. Every 8 weeks, HbA1c was determined.
All samples from one subject were analyzed in the same run to avoid intra-assay variability. Quantification of IGF-1 was performed using an immunoradiometric assay (IRMA) (DSL-5600 ACTIVE™, DSL, Germany GmbH, Germany). Intra- and inter-assay variance was: 4.0% and 9.2% and 1.5% for IGF-1. The Hba1c was analyzed on HPLC Menarine HA 81-60.
The total work output of every subject was calculated with a 2-way ANOVA for repeated measures and the hormone values were analyzed with the Wilcoxon test. In all cases, a p value of <0.05 was accepted as significant.

IGF-BP3 = assay: Plasma IGF-BP3 level in eight CFS patients treated with the composition (Example 1); assay type: in vivo, human
Description: Eight patients suffering from severe chronic fatigue syndrome (CFS) were studied over a 5- to 7-month period. In this period, they were treated with a therapeutical composition of the disclosure in the form of a food supplement, which comprised IAA as the active ingredient. All subjects were unable to do their job or to perform very light physical exercise.
Before entering the study, the subjects underwent a careful medical examination to exclude any other disease. Blood was assayed for insulin-like growth factor 1 (IGF-1) and its major binding protein IGF-BP3 was sampled at 0, 1, 3 and 5 to 7 months of treatment because the total amount of IGF-1 in serum minus the amount of IGF-BP3 is the amount of free IGF-1. Free IGF-1 is the active serum fraction. Also at 0, 1, 3 and 5 to 7 months, job participation and physical activities were registered and calculated as percentage of normal, before disease pattern.
Eight women varying in age from 25 to 53 years having severe complaints of fatigue that made it impossible to function normally, both at work and in free time. All reported an excessive need for sleep, which was never refreshing even though it was prolonged (more than 12 hours). After excluding all other diseases and infections, they were all diagnosed for CFS.
Blood samples of 20 ml were taken and liver and kidney functions, the red and white hemogram, IGF-1 and IGF-BP3 determined. The patients took 1000 mg/day (corresponding to 40 mg IAA and 960 mg salt and WPC 70) of the composition of the disclosure for 4 weeks. After this, the dosage was reduced by 250 mg (corresponding to 10 mg IAA) every 2 weeks to 750 mg/day, 500 mg/day 250 mg/day, respectively. […]
At the start of the study and at each check-up point, the work participation and physical activity pattern were scored on a scale from 1 to 10 and plotted as the percentage of the patient's normal activities. […] IGF-BP3 was determined by means of an immunoassay (DSL-5600 ACTIVE™, DSL Deutschland GmbH, Germany) having an intra-assay variance of 4.4% and an inter-assay variance of 6.6%. […]

IGF-1 [2] = assay: IGF-1 concentration in problem piglets (group P) with history of PRRSV treated with IAA (Example 9); assay type: in vivo, Belgian Land Race piglets; conditions: for IGF-1: group P piglets, acetic acid
Description: The piglets were weaned at four weeks and relocated, twelve piglets per pen. IGF-1 levels from three different groups were tested at the age of five weeks.
These are the pigs with the big problems. They are looking poor, have a low weight, bad color and some of them have Staphylococcus infections. It was the firm belief of the farmer and the veterinarian that these piglets would not reach the end of the fattening cycle. Blood samples were taken at random from five of the twelve piglets.
After seeing the low IGF-1 levels in group P, it was decided to give them the same treatment as in humans with CFS. The average weight of the piglets would have been around seven kilos at five weeks of age. They were treated with 125 mg of the composition comprising 5 mg IAA and 120 mg NaCl and WPC 70 for ten days. The product was fed in a trough, mixed in liquid feed. All the piglets ate from the same trough.
After ten days of treatment, random blood samples were taken from the different groups. A code was added for the size of the animals (K=small; N=normal; Z=heavy).
At random, IGF-1 concentrations of five piglets of this group were measured.
Three weeks later, blood samples were again taken, but only from the problem group.

For indole acetic acid [IAA], the “IgF-1 level, average” value (IGF-1 [1]; Month 0 (start), average of 5 subjects, acetic acid) was 10.8 nmol/L and 10.7 nmol/L, the IgF-1 level (IGF-1 [1]; Month 0 (start), individual subjects, acetic acid) was 11.1 nmol/L and 9.6 nmol/L and 10.4 nmol/L and 11.2 nmol/L and 11.3 nmol/L and the “IgF-1 level, average” value (IGF-1 [1]; Month 1, average of 5 subjects) was 11.4 nmol/L. The IgF-1 level (IGF-1 [1]; Month 1, individual subjects, acetic acid) was 12.5 nmol/L and 10.1 nmol/L and 10.8 nmol/L and 11.6 nmol/L and 12.0 nmol/L, the “IgF-1 level, average” value (IGF-1 [1]; Month 2, average of 5 subjects) was 12.0 nmol/L and the IgF-1 level (IGF-1 [1]; Month 2, individual subjects, acetic acid) was 13.1 nmol/L and 10.6 nmol/L and 11.6 nmol/L and 11.9 nmol/L and 12.6 nmol/L. For the same substance, the “IgF-1 level, average” value (IGF-1 [1]; Month 3, average of 5 subjects) was 12.5 nmol/L, the IgF-1 level (IGF-1 [1]; Month 3, individual subjects, acetic acid) was 13.8 nmol/L and 11.1 nmol/L and 12.1 nmol/L and 12.3 nmol/L and 13.0 nmol/L and the “IgF-1 level, average” value (IGF-1 [1]; Month 4, average of 5 subjects) was 13.0 nmol/L. The IgF-1 level (IGF-1 [1]; Month 4, individual subjects, acetic acid) was 14.3 nmol/L and 11.8 nmol/L and 12.6 nmol/L and 12.8 nmol/L and 13.5 nmol/L, the “IgF-1 level, average” value (IGF-1 [1]; Month 5, average of 5 subjects) was 13.5 nmol/L and the IgF-1 level (IGF-1 [1]; Month 5, individual subjects, acetic acid) was 14.9 nmol/l and 12.1 nmol/l and 13.3 nmol/l (2×) and 13.9 nmol/l. For the same substance, the “IgF-1 level, average” value (IGF-1 [1]; Month 6, average of 5 subjects) was 14.1 nmol/L, the IgF-1 level (IGF-1 [1]; Month 6, individual subjects, acetic acid) was 15.2 nmol/L and 12.9 nmol/L and 13.9 nmol/L and 14.4 nmol/L and 14.3 nmol/L and the “IGF-BP3 level (mean±SD)” value (IGF-BP3; after 1 month of treatment) was 18.1 ± 3.5 nmol/L. For the same substance, the “IGF-BP3 level (mean±SD)” value (IGF-BP3; after 5 months of treatment) was 13.4 ± 10.6 nmol/L, the “IGF-BP3 level (mean±SD)” value (IGF-BP3; before treatment (baseline)) was 25 ± 11.5 nmol/L and the IGF-1 (IGF-1 [2]; age five weeks, before treatment (baseline), random individual piglets) was 2.3 nmol/l and <0.5 nmol/l (2×) and 2.0 nmol/l and 1.8 nmol/l. The IGF-1 (IGF-1 [2]; after ten days of treatment (125 mg composition = 5 mg IAA), random individual piglets) was 0.8 nmol/l and <0.5 nmol/l (3×) and 4.2 nmol/l, the IGF-1 (IGF-1 [2]; three weeks later, treatment stopped, individual piglets) was 55.6 nmol/L and 30.0 nmol/L and 23.4 nmol/L and 65.1 nmol/L and 13.7 nmol/L and 60.1 nmol/L and 36.9 nmol/L and the “change of IGF-1 levels” value (IGF-1 [2]; group P, after ten days of treatment) was “did not rise”.
